Test results taken from patent US20260116874A1, “HETEROAROMATIC INDOLESULFONAMIDES” (SEED Therapeutics, Inc., priority 2023, published 2026).
Read-outs that look alike come from different tables or passages of the source.

Tests used:
MDR1 = target: T1, MDR1 (Homo sapiens, UniProt P08183); assay: MDCK-MDR1 permeability / efflux assay; format: in vitro ADME, canine; details: dog; for Papp A→B at 2 h, 1 µM: MDCK-MDR1, pH 7.4, MDCK cells, apical to basolateral
T1 construct: expressed in transfected cells; host or cells: MDCK-MDR1 cells (MDCK host)
Procedure: To prepare transport buffer (HBSS with 10 mM HEPES, pH 7.4), 2.383 g of HEPES and 0.35 g sodium hydrogen carbonate was accurately weighed and added into 900 mL of pure water, then sonicated to dissolve the content. Into the solution was transferred 100 mL of 10×HBSS, and the solution was placed on a stirrer. The pH of the solution was slowly adjusted with sodium hydroxide to 7.4, followed with filtering.
MDCK-MDR1 plate(s) were removed from the incubator. The monolayer was washed the monolayer twice with pre-warmed HBSS (10 mM HEPES, pH 7.4). Then the plate(s) were incubated at 37° C. for 30 minutes.
Propranolol was used as the high permeability marker. Digoxin was used as the substrate of […] (MDR1). Stock solutions of test compound(s) and digoxin in DMSO at 0.2 mM were prepared and diluted with HBSS (10 mM HEPES, pH 7.4) to get 1 μM working solutions. Stock solutions of propranolol in DMSO at 1 mM was prepared and diluted with HBSS (10 mM HEPES, pH 7.4) to get 5 μM working solutions.
To determine the rate of drug transport in the apical to basolateral direction, 125 μL of the working solution was added to the Transwell insert (apical compartment), and a 50 μL sample was immediately transferred from the apical compartment to 200 μL quenching solvents (acetonitrile with 100 nM alprazolam, 200 nM caffeine, 200 nM labetalol and 100 nM tolbutamide) in a new 96-well plate as the initial donor sample (A-B). The plate was shaken at 1000 rpm for 10 minutes. The wells in the receiver plate (basolateral compartment) were filled with 235 μL of transport buffer. All incubations were performed in duplicate.
To determine the rate of drug transport in the basolateral to apical direction, 285 μL of the 1 μM working solution was added to the receiver plate wells (basolateral compartment), and a 50 μL sample was immediately transferred from the basolateral compartment to 200 μL quenching solvents (acetonitrile with 100 nM alprazolam, 200 nM caffeine, 200 nM labetalol and 100 nM tolbutamide) in a new 96-well plate as the initial donor sample (B-A). Shake the plate at 1000 rpm 10 minutes. The Transwell insert (apical compartment) was filled with 75 μL of transport buffer. The apical to basolateral direction and the basolateral to apical direction were done at the same time.
The Transwell insert plate was inserted into the basolateral plate, transferred into the incubator and incubated at 37° C. for 2 hours.
At the end of the incubation, 50 μL samples from donor sides (apical compartment for Ap→Bl flux, and basolateral compartment for Bl→Ap flux) and receiver sides (basolateral compartment for Ap→Bl flux, and apical compartment for Bl→Ap flux) were transferred to wells of a new 96-well plate, followed by the addition of 4 volume of quenching solvents (acetonitrile with 100 nM alprazolam, 200 nM caffeine, 200 nM labetalol and 100 nM tolbutamide). Samples were Vortexed for 10 minutes and then centrifuged at 3,220 g for 40 minutes. An aliquot of 100 μL of the supernatant was mixed with an appropriate volume of ultra-pure water before LC-MS/MS analysis.
To determine the Lucifer yellow leakage after 2-hour transport period, Lucifer yellow working solutions were prepared by diluting the stock solution with HBSS (10 mM HEPES, pH 7.4) to reach the final concentration of 100 μM. To the apical compartment, 100 μL of the Lucifer yellow solution were added. The plate(s) were incubated at 37° C. for 30 minutes and 80 μL was directly removed from the apical and basolateral wells and transferred to new 96 wells plates. Lucifer yellow fluorescence (to monitor monolayer integrity) was measured in a fluorescence plate reader at 485 nm excitation and 530 nm emission.

[1] = Liver microsomes stability, human; format: in vitro ADME
Procedure: (§1) A 100 μM test compound solution and PC solution (verapamil) was prepared by adding 2 μL of 10 mM stock solution in DMSO to 198 μL of 50% acetonitrile/50% water.
(§2) Two separate experiments were performed as follows:
(§3) a) With Cofactors (NADPH): 25 μL of 10 mM NADPH was added to the incubations. The final concentrations of microsomes and NADPH were 0.5 mg/mL and 1 mM, respectively.
(§4) b) Without Cofactors (NADPH): 25 μL of 100 mM Phosphate buffer was added to the incubations. The final concentration of microsomes was 0.5 mg/mL. The mixture was pre-warmed at 37° C. for 10 minutes.
(§5) The reaction was started with the addition of 2.5 μL of 100 µM control compound or test compound solutions. Verapamil was used as positive control in this study. The final concentration of test compound or control compound was 1 μM. The incubation solution was incubated in a water bath at 37° C.
(§6) Aliquots of 30 μL were taken from the reaction solution at 0.5, 15, 30, 45 and 60 minutes. The reaction was stopped by the addition of 5 volumes of cold acetonitrile with IS (100 nM alprazolam, 200 nM caffeine and 100 nM tolbutamide).
(§7) Samples were then centrifuged at 3,220 g for 40 minutes. An aliquot of 100 μL of the supernatant was mixed with 100 μL of ultra-pure H2O and then used for LC-MS/MS analysis.
(§8) Single dose PK parameters were also determined for Compound 143, a deuterated derivative of Compound 1, according to the methods described herein. […] Metabolic stability was assessed by measuring the half-life of the test compounds in human and mouse liver microsomes.

[2] = Liver microsomes stability, mouse; format: in vitro ADME
Procedure: as §1, §2, §3, §4, §5, §6, §7, §8

[3] = Single dose plasma pharmacokinetics after IV and PO administration; format: in vivo, female BALB/c mice; details: for AUC(0-t) / Cmax: female, BALB/c; for AUC(0-t) / Cmax / AUC(0-inf) / C0 / clearance / half-life / Vd / Tmax: mouse, plasma; for AUC(0-t) / Cmax / F / AUC(0-inf) / C0 / clearance / half-life / Vd / Tmax: female BALB/c mice; for F: PO 20 mg/kg vs IV 1 mg/kg; for Vd: read-out: Vss
Procedure: Single dose PK parameters in plasma were determined following intravenous administration of compound 1 and comparative compound E7820 at 1 mg/kg by using the formulation of 10% DMSO/30% PEG400/60% Saline. The plasma samples were collected at the following time points: 0.083, 0.25, 0.5, 1, 2, 4, 8 and 24 hrs post-dose. The concentrations in plasma were determined.
Single dose PK parameters in plasma were determined following oral gavage of Compound 1 and comparative compound E7820 at 20 mg/kg by using the formulation of 0.5% MC (400 cps) and 0.1% Tween80 in water. The plasma samples were collected at the following time points: 0.25, 0.5, 1, 2, 4, 8 and 24 hrs post dose.
as §8

[4] = MDCK-MDR1, pH 7.4, MDCK cells, Table 6, read-out: MDCK Permeability Efflux Ratio
[5] = Table 6, read-out: Metabolic Stability Half-life, Human
[6] = Table 6, read-out: Metabolic Stability Half-life, Mouse
[7] = po, 20 mg/kg, AUC(0-8 hr), oral administration, Table 7
[8] = po, 20 mg/kg, oral administration, Table 7
[9] = MDCK-MDR1, pH 7.4, MDCK-MDR1, 1 μM, 2 hours, Table 3, read-out: MDCK-MDR1 Efflux ratio
[10] = 1 μM, Table 3, read-out: Metabolic Stability Half-life, human
[11] = 1 μM, Table 3, read-out: Metabolic Stability Half-life, mouse
[12] = iv, 1 mg/kg, IV 1 mg/kg, read-out: AUC(0-t)
[13] = po, 20 mg/kg, PO 20 mg/kg, read-out: AUC(0-t)

T1 sequence (P08183 whole entry): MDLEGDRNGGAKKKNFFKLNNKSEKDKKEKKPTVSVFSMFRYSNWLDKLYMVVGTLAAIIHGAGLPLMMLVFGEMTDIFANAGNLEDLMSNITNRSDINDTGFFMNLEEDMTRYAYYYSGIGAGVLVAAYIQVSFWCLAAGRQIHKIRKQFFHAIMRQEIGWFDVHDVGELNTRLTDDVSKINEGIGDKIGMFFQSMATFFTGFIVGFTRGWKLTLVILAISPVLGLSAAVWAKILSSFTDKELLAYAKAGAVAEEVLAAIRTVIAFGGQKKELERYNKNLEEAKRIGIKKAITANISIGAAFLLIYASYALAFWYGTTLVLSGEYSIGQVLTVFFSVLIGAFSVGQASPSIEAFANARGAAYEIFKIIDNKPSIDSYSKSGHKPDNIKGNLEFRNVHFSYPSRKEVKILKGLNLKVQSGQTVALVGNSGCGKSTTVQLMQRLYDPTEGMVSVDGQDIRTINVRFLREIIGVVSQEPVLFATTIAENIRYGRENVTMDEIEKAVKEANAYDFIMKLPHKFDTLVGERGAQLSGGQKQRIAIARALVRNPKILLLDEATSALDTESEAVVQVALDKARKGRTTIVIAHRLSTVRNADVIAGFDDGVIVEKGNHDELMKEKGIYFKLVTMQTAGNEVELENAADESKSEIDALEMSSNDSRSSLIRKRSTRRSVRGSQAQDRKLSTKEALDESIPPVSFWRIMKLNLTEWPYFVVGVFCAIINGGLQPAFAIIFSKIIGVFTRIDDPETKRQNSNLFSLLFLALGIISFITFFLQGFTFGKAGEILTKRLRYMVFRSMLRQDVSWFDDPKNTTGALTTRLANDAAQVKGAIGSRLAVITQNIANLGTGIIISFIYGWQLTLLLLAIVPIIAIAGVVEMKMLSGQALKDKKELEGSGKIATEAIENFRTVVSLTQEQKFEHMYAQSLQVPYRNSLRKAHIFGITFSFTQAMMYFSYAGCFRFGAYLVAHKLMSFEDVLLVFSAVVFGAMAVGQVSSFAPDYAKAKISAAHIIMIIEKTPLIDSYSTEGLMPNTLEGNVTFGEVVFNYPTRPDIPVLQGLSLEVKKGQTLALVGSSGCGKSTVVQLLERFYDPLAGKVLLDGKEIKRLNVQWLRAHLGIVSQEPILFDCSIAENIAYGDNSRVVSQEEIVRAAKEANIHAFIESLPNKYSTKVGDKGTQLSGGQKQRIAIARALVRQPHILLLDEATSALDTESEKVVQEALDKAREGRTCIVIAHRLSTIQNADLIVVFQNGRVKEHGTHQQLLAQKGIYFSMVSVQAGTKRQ

efflux ratio at 2 h, 1 µM (MDR1; [4]) | Papp A→B at 2 h, 1 µM (MDR1; Table 6) | half-life at 1 µM [1, 5] | half-life at 1 µM [2, 6] | AUC(0-t) [3, 7] | Cmax [3, 8] | efflux ratio at 2 h, 1 µM (MDR1; [9]) | half-life at 1 µM [1, 10] | half-life at 1 µM [2, 11] | F [3] | AUC(0-t) [3, 12] | Cmax ([3]; po, 20 mg/kg, PO 20 mg/kg) | AUC(0-t) [3, 13] | AUC(0-inf) ([3]; IV 1 mg/kg) | C0 ([3]; IV 1 mg/kg) | clearance ([3]; IV 1 mg/kg) | half-life ([3]; IV 1 mg/kg) | Vd ([3]; IV 1 mg/kg) | Tmax ([3]; PO 20 mg/kg) | Compound | other results
12 | 2.9 ×10⁻⁶ cm/s | 93 min | 67 min | 107000 ng·h/mL | 19300 ng/mL | – | – | – | – | – | – | – | – | – | – | – | – | – | [2H]C([2H])([2H])c1ncc(S(=O)(=O)Nc2ccc(C)c3c(C#N)c[nH]c23)s1 [Compound 143, N-(3-cyano-4-methyl-1H-indol-7-yl)-2-(methyl-d3)thiazole-5-sulfonamide] | plasma AUC compared to Compound 1 ([3]; oral administration, compared to Compound 1, in words): increase
30 | 1.1 ×10⁻⁶ cm/s | 51 min | 29 min | – | – | 29.9 | 50.7 min | 28.7 min | 202% | 1640 ng·h/mL | 11500 ng/mL | 66200 ng·h/mL | 1650 ng·h/mL | 3150 ng/mL | 10.2 mL/min/kg | 32.5 min | 0.393 L/kg | 160 min | Cc1ccc(NS(=O)(=O)c2cccc(C#N)c2)c2[nH]cc(C#N)c12 [Compound E7820, E7820, reference compound] | –
26 | 1.9 ×10⁻⁶ cm/s | 66 min | 47 min | 62300 ng·h/mL | 9850 ng/mL | 25.5 | 66.2 min | 47.1 min | 407% | 1860 ng·h/mL | 25900 ng/mL | 151000 ng·h/mL | 1860 ng·h/mL | 6060 ng/mL | 9.4 mL/min/kg | 40.2 min | 0.201 L/kg | 140 min | Cc1ncc(S(=O)(=O)Nc2ccc(C)c3c(C#N)c[nH]c23)s1 [Compound 1, N-(3-cyano-4-methyl-1H-indol-7-yl)-2-methyl-thiazole-5-sulfonamide] | AUC(0-inf) ([3]; PO 20 mg/kg): 190000 ng·h/mL; half-life ([3]; PO 20 mg/kg): 151 min; increase in plasma AUC compared to E7820 ([3]; oral administration, compared to control compound E7820): greater than 2 fold
